Assay results published in article PMC5719359 (Scientific Reports, 2017).

Target: T1, tubulin (Sus scrofa, UniProt P02550+P02554)
T1 construct: purified porcine tubulin; with alpha-tubulin (alpha/beta heterodimer)
Assay: fluorescence colchicine competition assay; the IC50 is from the in vitro tubulin polymerization assay
Type: biochemical

IC50: 2.06 µM
SMILES: COc1cc(OC)cc(N2CCN(C(=O)c3n[nH]nc3-c3ccccc3Cl)CC2)c1 [7p]
